According to patent publication US20160194631A1, “Methods for Modulation of Autophagy Through the Modulation of Autophagy-Inhibiting Gene Products” (Harvard Medical School, priority 2009, published 2016):
Entries after “also recorded” stand apart in the source; their conditions may differ.

Tests used:
Format in all cases: cell-based, human
H4 cells [1] = experiment: Western blot of autophagy markers (LC3, p62); settings: for autophagy by western blot (LC3II accumulation, LC3 II/tubulin): serum-free medium, 100 ng/mL IGF1, 50 ng/mL FGF2, LIF or CLCF1, 10 μg/mL E64d, with or without 50 nM rapamycin, H4, HEK293, HeLa, MCF7
Procedure: (§1) For the cytokine assays, cells were seeded at 0.5×10^5 in full medium in either 24-well (western) or 96-well (LC3-GFP quantification) plates. After 24 hours, cells were washed in PBS and serum-free OptiMEM medium (Invitrogen) was added along with the indicated growth factors and/or cytokines for an additional 24 hours. Growth factors and cytokines used include human TNFα (Cell Sciences), human LIF (GeneScript Corporation), human FGF2 (ProSpec), human IGF1 (ProSpec), human SDF1 (Prospec) and human CLCF1 (R&D Systems). To induce starvation, cells were cultured for 24 hours in full media, washed in PBS and cultured for additional 4 hours in HBSS bedia (Invitrogen).
For western blot analysis, lysosomal protease inhibitor E64d (Sigma) was added at a concentration of 10 μg/mL for the last 8-12 hours before cell lysis.
(§2) For western blots, cells were lysed in Lammeli sample buffer, resolved on a 10-12% SDS-PAGE gel and transferred to PVDF membrane. The following antibodies were used: LC3 (Novus), p62 (Pharmigen), phospho-S6K (Thr389), phospho-Akt (Ser473), phospho-Stat3 (Tyr705), RelA, Sod1, phospho-PTEN (Ser380/Thr382/383) (all Cell Signaling), Bcl-2 (Santa Cruz), all at 1:1000, phospho-S6 (Ser235/236) (Cell Signaling) and phospho-ERK 1/2 (Sigma) at 1:2000, tubulin (Sigma) at 1:5000. Where indicated, blots were quantified using NIH ImageJ64 software.

H4 cells [2] = experiment: Western blot of signalling protein levels and phosphorylation; settings: for activating phosphorylation of Stat3: 50 ng/mL LIF or CLCF1
Description: as §2

[3] = tested on: H4 cells stably expressing LC3-GFP; experiment: LC3-GFP autophagosome translocation image-based assay; settings: for autophagy as measured by LC3-GFP translocation: H4 LC3-GFP cells grown in serum-free medium, cytokine 24 hours; for autophagy (autophagosome associated LC3-GFP): H4 LC3-GFP cells in defined medium
Procedure: (§3) H4 human neuroblastoma cells were cultured under standard tissue culture conditions in DMEM media supplemented with 10% normal calf serum, penicillin/streptomycin, sodium pyruvate (Invitrogen) and, where appropriate, 0.4-1.2 mg/mL G418. LC3-GFP and FYVE-dsRed H4 cells were generated as described in Zhang et al., PNAS, 102, 15545-15550 (2007). To create a stable line expressing Lamp1, H4 cells were transfected with Lamp1-RFP plasmid using TransIT LT1 reagent (Minis), followed by selection with 0.4 mg/mL G418. Bcl-2 expressing cell lines were created by infecting LC3-GFP and FYVE-dsRed H4 cells with pBabe-Bcl-2 retrovirus, followed by selection with […] puromycin.
as §1, with “(Invitrogen). […]” for “(Invitrogen).”
For high-throughput screens, cells were imaged on an automated CellWoRx microscope (Applied Precision) at 10× magnification using 2 wavelengths (350 nm to detect Hoechst, 488 nm to detect LC3-GFP) for the primary screens and 3 wavelengths (350 nm, 488 nm and 550 nm to detect Lamp1-RFP or FYVE-dsRed) for the secondary screens. All images were quantified using VHSscan and VHSview image analysis software (Cellomics). Total cell number, total LC3-GFP intensity/cell as well as number, area and intensity of LC3-GFP positive autophagosomes/cell were scored. All dead and mitotic cells were excluded from analysis based on nuclear intensity. The final autophagy score for each well was obtained by multiplying the total autophagosome intensity/cell by the number of autophagosomes/cell and dividing by the average cell intensity. This formula was empirically determined to accurately measure LC3-GFP translocation from cytosol into autophagosomes as reflected by consistently significant z-scores and p-values when using siRNAs against mTOR and Atg5 controls. FYVE-dsRed and Lamp1-RFP scores were obtained in a manner similar to LC3-GFP scores, except that for Lamp1-RFP, which measures total accumulation of the reporter rather than its translocation, division by the average cell intensity was omitted.
For low-throughput follow-up analysis, cells were grown on glass cover slips. Following fixation in 4% paraformaldehyde and counterstaining with Hoechst, cover slips were mounted in 50% glycerol, 0.1% n-propyl gallate/PBS. Cells were imaged at 40× magnification on a Nikon Eclipse E800 microscope. Cell numbers, cell area and intensity, as well as autophagosome number and intensity, were quantified using Metamorph software. Autophagy was scored as number of autophagosomes per cell.
Human neuroblastoma H4 cells stably expressing the LC3-GFP reporter were used to identify genes involved in the regulation of autophagy in mammals. […] When autophagy is induced in these cells, LC3-GFP is recruited from the cytosol and can be visualized in a punctate pattern corresponding to autophagosomes. In order to validate the system, cells were transfected with siRNA against either the essential autophagy mediator ATG5 or against mTOR, a suppressor of starvation-induced autophagy. Following 72 hours of incubation under normal nutritional conditions, […].

GRP78 and GRP94 = experiment: In-cell-western of KDEL (GRP78/GRP94) expression (ER stress); settings: H4 cells treated with tunicamycin
Procedure: For quantitative analysis of mTORC1 signaling and induction of endoplasmic reticulum stress, in-cell-western analysis of rpS6 phosphorylation and KDEL (GRP78/GRP94) expression (‘KDEL’ disclosed as SEQ ID NO: 2), respectively, were performed. H4 cells were cultured in 384-well plates and fixed and counterstained as described for the LC3-GFP assay. Following imaging, the cells were permeabilized in PBS containing 0.2% Tx-100 and stained with Alexa-680 NETS-ester, a non-specific lysine reactive probe used to measure relative cell number, at 20 ng/mL for 15 minutes. Subsequently, the cells were washed with PBS containing 0.2% Tx-100 and incubated for 30 minutes in blocking buffer (LiCOR Blocking Buffer diluted 1:1 with PBS+0.2% Tx-100). Cells were then incubated overnight with a rabbit-anti-rpS6 phospho-235/236 (Cell Signaling Technologies), or mouse-anti-KDEL (Stressgen) antibody (‘KDEL’ disclosed as SEQ ID NO: 2) diluted 1:1000 in blocking buffer. […] The intensities of both, the rpS6 phospho-235/236 or KDEL staining (‘KDEL’ disclosed as SEQ ID NO: 2), and of NHS-ester staining were integrated, and the normalized phospho-S6 or KDEL score (‘KDEL’ disclosed as SEQ ID NO: 2) were calculated by dividing phospho-rpS6 or KDEL intensity by NHS-ester intensity (‘KDEL’ disclosed as SEQ ID NO: 2). […]

type III PI3 kinase = experiment: FYVE-dsRed reporter assay of PtdIns3P levels
Procedure: as §3
For secondary screens, a siRNA library was used in which the 4 siRNAs of each siRNA pool were separated into individual wells. […]
For high-throughput screens, cells were imaged on an automated CellWoRx microscope (Applied Precision) at 10× magnification using 2 wavelengths (350 nm to detect Hoechst, 488 nm to detect LC3-GFP) for the primary screens and 3 wavelengths (350 nm, 488 nm and 550 nm to detect Lamp1-RFP or FYVE-dsRed) for the secondary screens. All images were quantified using VHSscan and VHSview image analysis software (Cellomics). Total cell number, total LC3-GFP intensity/cell as well as number, area and intensity of LC3-GFP positive autophagosomes/cell were scored. […]

[4] = 100 ng/mL IGF1 plus Akt inhibitor VIII

O=c1[nH]c2ccccc2n1C1CCN(Cc2ccc(-c3nc4cc5[nH]cnc5cc4nc3-c3ccccc3)cc2)CC1 [Akt inhibitor VIII, reference compound]
effect on inhibition of autophagy by IGF1 (H4 cells [1]; [4]): prevented inhibition of autophagy
phosphorylation of Foxo3a and S6 kinase (H4 cells [2]; [4]): attenuated phosphorylation

IGF1: human IGF1 (ProSpec); insulin-like growth factor 1
autophagy as measured by LC3-GFP translocation [3]: significant down-regulation of autophagy
autophagy by western blot (LC3II accumulation, LC3 II/tubulin) (H4 cells [1]): suppress autophagy in the absence and presence of rapamycin
phosphorylation of Akt and Foxo3a (H4 cells [2]; IGF-1 treatment, absence and presence of rapamycin): increased

tunicamycin [reference compound]
autophagy ([3]; H4 cells treated with tunicamycin): increase in autophagy
levels of GRP78 and GRP94 (GRP78 and GRP94): dose-dependent up-regulation

N#CC(=C(/N)Sc1ccccc1N)/C(C#N)=C(/N)Sc1ccccc1N [UO126, reference compound]
effect on inhibition of autophagy by FGF2 (LC3 western) (H4 cells [1]; H4 cells, serum-free media, 50 ng/mL FGF2, 10 μg/mL E64d, UO126 pre-treatment): attenuated inhibition of autophagy; also recorded: prevented

FGF2: human FGF2 (ProSpec); fibroblast growth factor 2 (basic)
autophagy as measured by LC3-GFP translocation [3]: significant down-regulation of autophagy
autophagy by western blot (LC3II accumulation, LC3 II/tubulin) (H4 cells [1]): suppress autophagy in the absence and presence of rapamycin
level of phospho-ERK1/2 and phospho-RSK (H4 cells [2]; H4 cells, serum-free media, 50 ng/mL FGF2): increased level

CC(=O)N[C@@H](CS)C(=O)O [NAC, N-acetyl-L-cysteine, reference compound]
effect on induction of autophagy caused by knock-down of Sod1 ([3]; H4 LC3-GFP cells, 2.5 mM NAC): significantly attenuated
effect on elevated induction of autophagy in response to starvation ([3]; RelA deficient H4 cells, 2.5 mM NAC): attenuated
effect on Aβ-induced accumulation of PtdIns3P (type III PI3 kinase; with antioxidant NAC): suppressed

SDF1: human SDF1 (Prospec); chemokine SDF1 (CXCL12)
autophagy as measured by LC3-GFP translocation [3]: significant down-regulation of autophagy

TNFα
autophagy (autophagosome associated LC3-GFP) ([3]; higher doses of TNFα): up-regulation of autophagy
autophagy (autophagosome associated LC3-GFP) ([3]; low doses of TNFα): down-regulation of autophagy
p62 level by western blot (H4 cells [1]; low levels of TNFα (5 ng/ml), nutrient deprivation): significant accumulation of p62

Cn1cnc(=N)c2[nH]cnc21 [3MA, reference compound]
effect on induction of autophagy in response to Aβ ([3]; H4 GFP-LC3 cells, 3MA): attenuate induction of autophagy
effect on Aβ-induced accumulation of PtdIns3P (type III PI3 kinase; 3MA 10 mM, 8 hours prior to fixation): suppressed

LIF: human LIF (GeneScript Corporation); leukemia inhibitory factor
autophagy as measured by LC3-GFP translocation [3]: significant down-regulation of autophagy
autophagy by western blot (LC3II accumulation, LC3 II/tubulin) (H4 cells [1]): suppress autophagy in the absence and presence of rapamycin
activating phosphorylation of Stat3 (H4 cells [2]): increased activating phosphorylation of Stat3

B1: CLCF1: human CLCF1 (R&D Systems); cardiotrophin-like cytokine factor 1 (protein, UniProt Q9UBD9 28-225, looked up)
Cardiotrophin-like cytokine …: LNRTGDPGPGPSIQKTYDLTRYLEHQLRSLAGTYLNYLGPPFNEPDFNPPRLGAETLPRATVDLEVWRSLNDKLRLTQNYEAYSHLLCYLRGLNRQAATAELRRSLAHFCTSLQGLLGSIAGVMAALGYPLPQPLPGTEPTWTPGPAHSDFLQKMDDFWLLKELQTWLWRSAKDFNRLKKKMQPPAAAVTLHLGAHGF
autophagy as measured by LC3-GFP translocation [3]: significant down-regulation of autophagy
autophagy by western blot (LC3II accumulation, LC3 II/tubulin) (H4 cells [1]): suppress autophagy in the absence and presence of rapamycin
activating phosphorylation of Stat3 (H4 cells [2]): increased activating phosphorylation of Stat3
